According to the supplement of paper PMC10307832:

How the values were obtained:
Assay in all cases: relative viability (nuclei count vs DMSO), 5 days (fraction); higher = more cells survive
[1] = compound: CN(C)C(=N)NC(=N)N [Metformin] + CC1(C)CCC(c2ccc(Cl)cc2)=C(CN2CCN(c3ccc(C(=O)NS(=O)(=O)c4ccc(N[C@H](CCN5CCOCC5)CSc5ccccc5)c(S(=O)(=O)C(F)(F)F)c4)cc3)CC2)C1 [Navitoclax] (partner 0.5 µM)
Outline: (§1)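 A single step with final 0.05% Triton X-100, 1% formaldehyde and 1 ug/ml Hoechst fixed the cells and stained nuclei 5 days after treatment. Lung cancer cell lines in 1536-well plates had been treated by pin tool the day after seeding with one drug alone or a fixed anchor-drug dose plus five library-drug doses (not always all listed) in √10 steps, and nuclei were counted on 4× images. Relative viability is the ratio of nuclei in treated wells to nuclei in vehicle wells, taken as the median of duplicate plates.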

[2] = compound: N#CC1(c2ccc(NC(=O)c3cccnc3NCc3ccncc3)cc2)CCCC1 [Apatinib] + Cc1nc(NC(=O)N2CCC[C@H]2C(N)=O)sc1-c1ccnc(C(C)(C)C(F)(F)F)c1 [Alpelisib] (partner 2 µM)
Outline: as §1

[3] = compound: CN(C)C(=N)NC(=N)N [Metformin] + N=C(N)NC(=N)NCCc1ccccc1 [Phenformin] (partner 250 µM)
Outline: as §1

[4] = compound: N#CC1(c2ccc(NC(=O)c3cccnc3NCc3ccncc3)cc2)CCCC1 [Apatinib] + CCNC(=O)c1noc(-c2cc(C(C)C)c(O)cc2O)c1-c1ccc(CN2CCOCC2)cc1 [Luminespib] (partner 0.01 µM)
Outline: as §1

Cell Line | relative viability ([1]; first compound 10 µM) | relative viability ([1]; first compound 31.62 µM) | relative viability ([1]; first compound 100 µM) | relative viability ([1]; first compound 316.23 µM) | relative viability ([1]; first compound 1000 µM) | relative viability ([2]; first compound 0.08 µM) | relative viability ([2]; first compound 0.253 µM) | relative viability ([2]; first compound 0.8 µM) | relative viability ([2]; first compound 2.53 µM) | relative viability ([2]; first compound 8 µM) | relative viability ([3]; first compound 10 µM) | relative viability ([3]; first compound 31.62 µM) | relative viability ([3]; first compound 100 µM) | relative viability ([3]; first compound 316.23 µM) | relative viability ([3]; first compound 1000 µM) | relative viability ([4]; first compound 0.08 µM) | relative viability ([4]; first compound 0.253 µM) | relative viability ([4]; first compound 0.8 µM) | relative viability ([4]; first compound 2.53 µM) | relative viability ([4]; first compound 8 µM)
EMC-BAC-2 | 1.1 | 1.17 | 1.1 | 1.09 | 1.15 | 0.759 | 0.785 | 0.76 | 0.751 | 0.678 | 0.592 | 0.519 | 0.506 | 0.499 | 0.651 | 1.22 | 1.29 | 1.14 | 1.09 | 0.987
COR-L 105 | 0.812 | 0.923 | 0.843 | 0.654 | 0.571 | 1.01 | 1.23 | 0.82 | 0.921 | 0.731 | 0.727 | 0.61 | 0.65 | 0.568 | 0.494 | 0.796 | 0.789 | 0.896 | 0.697 | 0.67
A-427 | 1.01 | 1 | 0.969 | 0.978 | 0.887 | 1.14 | 1.02 | 1.19 | 1.02 | 1 | 0.32 | 0.376 | 0.325 | 0.284 | 0.287 | 0.924 | 0.779 | 0.928 | 0.72 | 0.8
NCI-H1792 | – | 0.528 | 0.857 | 0.538 | 0.617 | 0.794 | 0.743 | 0.68 | 0.641 | 0.553 | 0.412 | 0.442 | 0.396 | 0.462 | 0.383 | 0.495 | 0.521 | 0.43 | 0.308 | 0.274
NCI-H520 | 1.1 | 1.08 | 1.13 | 0.979 | 1.19 | 0.924 | 0.865 | 0.918 | 0.685 | 0.633 | 1.08 | 0.892 | 0.603 | 0.658 | 0.78 | 0.218 | 0.245 | 0.223 | 0.216 | 0.207
NCI-H3122 | 0.937 | 0.955 | 0.969 | 0.933 | 0.89 | 0.781 | 0.796 | 0.822 | 0.761 | 0.714 | 0.307 | 0.303 | 0.322 | 0.287 | 0.288 | 0.0784 | 0.0827 | 0.0738 | 0.0782 | 0.0871
UMC-11 | 0.328 | 0.347 | 0.346 | 0.363 | 0.384 | 1.05 | 0.834 | 0.848 | 0.959 | 0.885 | 0.322 | 0.317 | 0.321 | 0.312 | 0.351 | 1.13 | 1.02 | 0.926 | 1.04 | 0.886
PC-3 [JPC-3] | 0.702 | 0.735 | 0.821 | 0.761 | 0.732 | 1 | 0.996 | 0.989 | 0.938 | 0.888 | 0.437 | 0.46 | 0.462 | 0.45 | 0.478 | 0.712 | 0.701 | 0.711 | 0.622 | 0.485
EKVX | 0.681 | 0.889 | 0.968 | 0.779 | 0.948 | 0.92 | 0.861 | 0.882 | 0.761 | 0.774 | 0.23 | 0.253 | 0.239 | – | 0.189 | 0.841 | 0.857 | 0.851 | 0.821 | 0.816
HCC-827 | – | 0.96 | 0.982 | 0.923 | 1.01 | 0.999 | 0.991 | 0.831 | 0.825 | 0.469 | – | 0.412 | 0.376 | 0.365 | 0.373 | 0.765 | 0.704 | 0.391 | 0.777 | 0.566
HCC-44 | 0.99 | 1.08 | 0.957 | 0.888 | 1.06 | 0.854 | 0.784 | 0.745 | 0.766 | 0.726 | 0.236 | 0.35 | 0.298 | 0.223 | 0.166 | 0.98 | 1.21 | 1.03 | 1.02 | 0.751
NCI-H838 | 1.19 | 1.23 | 1.21 | 1.15 | 1.22 | 1.06 | 1.03 | 0.935 | 0.958 | 0.942 | 0.709 | 0.671 | 0.661 | 0.667 | 0.749 | 0.332 | 0.286 | 0.388 | 0.282 | 0.249
NCI-H2126 | 0.788 | 0.834 | 0.842 | 0.771 | 0.787 | 0.818 | 0.761 | 0.758 | 0.743 | 0.767 | 0.533 | 0.591 | 0.544 | 0.483 | 0.515 | 0.963 | 0.774 | 0.985 | 0.826 | 0.832
COR-L23 | 0.984 | 0.839 | 0.909 | 0.932 | 1.04 | 0.966 | 0.743 | 0.772 | 0.774 | 0.652 | 0.437 | 0.46 | 0.487 | 0.431 | 0.146 | 0.687 | 0.643 | 0.702 | 0.628 | 0.509
NCI-H727 | 0.503 | 0.514 | 0.496 | 0.512 | 0.535 | 0.64 | 0.625 | 0.53 | 0.512 | 0.506 | 0.321 | 0.707 | 0.585 | – | 0.573 | 0.307 | 0.31 | 0.393 | 0.387 | 0.233
LXF-289 | 0.912 | 0.918 | 0.939 | 0.914 | 0.901 | 1.13 | 1.06 | 1.03 | 0.998 | 0.964 | 0.48 | 0.525 | 0.537 | 0.509 | 0.51 | 0.644 | 0.857 | 0.633 | 0.652 | 0.743
